Data from the supplement of paper PMC8882468.

Assays:
Assay in all cases: CTG-3D luminescence at 96 h relative to day-0 seeding control (ratio to day 0); higher = more growth / less cytotoxicity
[1] = tested on: HCI-019 (organoid from a triple-negative breast cancer xenograft)
Method: (§1)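 PDX-derived breast cancer organoids (PDxO) in 384-well Matrigel plates, 8-point dose (0.000000625-100 uM), 96 h at 37 C; CellTiter-Glo 3D luminescence normalised to the day-0 seeding control (mean of 4 technical replicates over mean of 4 day-0 wells).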

[2] = tested on: HCI-011.E2 (organoid from an ER-positive breast cancer xenograft)
Method: as §1

[3] = tested on: HCI-003.E2 (organoid from an ER-positive breast cancer xenograft)
Method: as §1

[4] = tested on: HCI-010 (organoid from a breast cancer xenograft)
Method: as §1

O=c1[nH]cc(F)c(=O)[nH]1 [5-fluorouracil]
CTG-3D luminescence at 96 h
Conditions	12.5 pM	0.00025 µM	0.005 µM	0.1 µM	1 µM	10 µM	100 µM	625 fM
[1], days in culture: 110	–	–	–	2.55	1.05	2.15	1.45	2.02
[1], days in culture: 131	–	–	–	4.08	2.65	2.93	1.89	3.71
[1], days in culture: 152	–	–	2.59	1.85	1.99	2.54	1.96	2.62
[2], days in culture: 74	1.83	2.05	1.91	1.77	2.19	2.63	1.57	1.62
[4], days in culture: 52	2.25	2.58	2.49	2.66	2.42	2.48	1.51	2.55
[4], days in culture: 65	1.67	1.68	1.87	1.73	1.83	1.73	1.18	1.66
[4], days in culture: 103	3.85	3.56	3.46	3.56	3.17	2.42	2.1	3.28

CTG-3D luminescence at 96 h
Conditions	12.5 pM	0.00025 µM	0.005 µM	0.1 µM	1 µM	10 µM	100 µM	625 fM
[2]	1.56	1.46	1.7	1.81	1.73	2.08	1.35	1.63
[3]	2.25	2.06	1.93	2.08	1.85	1.87	0.993	2.19
